Literature values as cited in US20120115828A1 (APEX LABORATORIES PRIVATE LIMITED, priority 2009, published 2012).

| Compound | Solubility in alcohol (alcohol) | Solubility in chloroform | Solubility in water | Solubility in ethanol (95%) (ethanol (95%)) | Solubility in ether (ether) | Solubility in methanol (methanol) |
| --- | --- | --- | --- | --- | --- | --- |
| CC(=O)OCC(=O)[C@@]1(O)CC[C@H]2[C@@H]3CCC4=CC(=O)CC[C@]4(C)[C@H]3[C@@H](O)C[C@@]21C [Hydrocortisone Acetate] | slightly soluble | slightly soluble | insoluble | – | – | – |
| Clc1ccc(COC(Cn2ccnc2)c2ccc(Cl)cc2Cl)c(Cl)c1 (centres unmarked) [Miconazole Nitrate, 1-[2-(2,4-Dichlorophenyl)-2-[(2,4-dichlorophenyl)methoxy]ethyl]-1H-imidazole] | – | slightly soluble | very slightly soluble | slightly soluble | very slightly soluble | freely soluble |
